Results taken from patent EP2719280A1, “Use of N-phenylethylpyrazole carboxamide derivatives or salts thereof for resistance management of phytopathogenic fungi” (priority 2012, dated 2014).

Key:
[1] = system: Corynespora cassiicola (CORYCA); assay: In vitro microtiter plate assay, mycelial growth determined photometrically at 620nm; assay type: cell-based; settings: 400 spores&mycelia / well; for after 3 days EC50 [ppm]: 3 days after inoculation; for after 5 days EC50 [ppm]: 5 days after inoculation; for after 7 days EC50 [ppm]: 7 days after inoculation
Experimental: (§1) In Vitro-activity against various strains of Corynespora cassiicola and Botrytis cinerea resistant to SDHIs
Pathogen: Corynespora cassiicola (CORYCA) originating from cucurbits in Florida (US) • 1. sensitive strain (S011/12) • 2. resistant strain S1 • 3. resistant strain S2
Spores and mycelia of isolates of Corynespora cassiicola used in the microtiter plate assays were received from four weeks old cultures grown on PDA at 20 °C under black light. Spores and mycelia in steril water were used to inoculate the growth medium with 400 spores/mycelia per well. In the microtiter plate assay potato dextrose broth (PDB) was used as growth medium containing 25 mg/L Enrofloxacin. All isolates were tested with the following concentrations of boscalid and compound (1-1): 0 (control) 0.0064, 0.032, 0.16, 0.8, 4, 20 and 100 ppm. 96-well microplates were prepared in the following way: at first, 10 µl methanol (80 %) containing the amount of active ingredient required per concentration, was added to the cavities. After evaporation of the solvent and one day prior to inoculation, 140 ul growth medium was added to each well and the plate was stirred for at least two hours on a shaker. Then, 60 ul of the spore suspension, prepared as described above, were given into each cavity. The plates were incubated at 300 rpm on a shaker for 7 days at 24°C. Mycelia growth was determined photometrically at 620nm, three, five and seven days after inoculation. EC50 values were calculated according to the extinction values.

[2] = system: Botrytis cinerea (BOTRCI); assay: as above; assay type: cell-based; settings: succinate medium; for after 4 days EC50 [ppm]: 4 days after inoculation; for after 6 days EC50 [ppm]: 6 days after inoculation
Experimental: as §1
Pathogen: Botrytis cinerea (BOTRCI) sampled in European vineyards • 1. sensitive strain B047 • 2. resistant strain B 1 • 3. resistant strain B2 • 4. resistant strain B3 • 5. resistant strain B4 • 6. resistant strain B5 • 7. resistant strain B6
Conidia of isolates of Botrytis cinerea included in the microtiter plate assay were received from cultures grown at 20°C under black light for eight days. Conidia in steril water were used to inoculate the growth medium with 20.000 spores/well. Liquid succinate medium + 40 mg/L Enrofloxacin were used as growth medium. All isolates were tested with the following concentrations of boscalid and compound (1-1): 0 (control) 0.00192, 0.0096, 0.048, 0.24, 1.2, 6 and 30 ppm. 96-well microplates were prepared in the following way: at first, 10 µl methanol (80 %) containing the amount of active ingredient required per concentration, was added to the cavities. After evaporation of the solvent and one day prior to inoculation, 100 ul growth medium was added to each well and the plate was stirred for at least two hours on a shaker. Then, 100 ul of the spore suspension, prepared as described above, were given into each cavity. The plates were incubated at 300 rpm on a shaker for 6 days at 20°C. Mycelia growth was determined photometrically at 620nm, four and six days after inoculation. EC50 values were calculated according to the extinction values.

[3] = system: Alternaria alternata SDH-mutants; settings: boscalid-resistant isolates carrying SDH- mutations; in vitro; cited from earlier work

| SMILES | after 3 days EC50 [ppm] ([1]; isolate S011/12 (sensitive)) | after 5 days EC50 [ppm] ([1]; isolate S011/12 (sensitive)) | after 7 days EC50 [ppm] ([1]; isolate S011/12 (sensitive)) | after 3 days EC50 [ppm] ([1]; resistant strain S1) | after 5 days EC50 [ppm] ([1]; resistant strain S1) | after 7 days EC50 [ppm] ([1]; resistant strain S1) | after 3 days EC50 [ppm] ([1]; resistant strain S2) | after 5 days EC50 [ppm] ([1]; resistant strain S2) | after 7 days EC50 [ppm] ([1]; resistant strain S2) | after 4 days EC50 [ppm] ([2]; resistant strain B1) | after 6 days EC50 [ppm] ([2]; resistant strain B1) | after 4 days EC50 [ppm] ([2]; resistant strain B2) | after 6 days EC50 [ppm] ([2]; resistant strain B2) | after 4 days EC50 [ppm] ([2]; resistant strain B3) | after 6 days EC50 [ppm] ([2]; resistant strain B3) | after 4 days EC50 [ppm] ([2]; resistant strain B4) | after 6 days EC50 [ppm] ([2]; resistant strain B4) | after 4 days EC50 [ppm] ([2]; resistant strain B5) | after 6 days EC50 [ppm] ([2]; resistant strain B5) | after 4 days EC50 [ppm] ([2]; resistant strain B6) | also measured |
| --- | --- | --- | --- | --- | --- | --- | --- | --- | --- | --- | --- | --- | --- | --- | --- | --- | --- | --- | --- | --- | --- |
| O=C(Nc1ccccc1-c1ccc(Cl)cc1)c1cccnc1Cl [Boscalid] | 0,519 ppm | 1,387 ppm | 1,225 ppm | >100 ppm | >100 ppm | >100 ppm | >100 ppm | >100 ppm | >100 ppm | >30 ppm | >30 ppm | >30 ppm | >30 ppm | >30 ppm | >30 ppm | >30 ppm | >30 ppm | >30 ppm | >30 ppm | >30 ppm | after 6 days EC50 [ppm] ([2]; resistant strain B6): >30 ppm; after 4 days EC50 [ppm] ([2]; sensitive strain B047): 0,286 ppm; after 6 days EC50 [ppm] ([2]; sensitive strain B047): 0,317 ppm |
| COC(c1ccc(Cl)cc1Cl)C(C)NC(=O)c1cn(C)nc1C(F)F (stereo not drawn) [Compound (1-1), 3-difluoromethyl-1-methyl-1H-pyrazole-4-carboxylic acid [2-(2,4-dichlorophenyl)-2-methoxy-1-methyl-ethyl]-amide] | 0,106 ppm | 0,368 ppm | 0,341 ppm | 1,204 ppm | 1,971 ppm | 1,635 ppm | 2,583 ppm | 7,653 ppm | 10,162 ppm | 4,449 ppm | 6,467 ppm | 2,759 ppm | 3,073 ppm | 1,762 ppm | 1,798 ppm | 2,166 ppm | 1,905 ppm | 14,663 ppm | 18,965 ppm | 0,875 ppm | after 6 days EC50 [ppm] ([2]; resistant strain B6): 1,390 ppm; after 4 days EC50 [ppm] ([2]; sensitive strain B047): 0,288 ppm; after 6 days EC50 [ppm] ([2]; sensitive strain B047): 0,290 ppm |
| O=C(NCCc1ncc(C(F)(F)F)cc1Cl)c1ccccc1C(F)(F)F [fluopyram] | – | – | – | – | – | – | – | – | – | – | – | – | – | – | – | – | – | – | – | – | mycelial growth [3]: strongly inhibited |
| CC(C)CC(C)c1sccc1NC(=O)c1cn(C)nc1C(F)(F)F (stereo not drawn) [penthiopyrad] | – | – | – | – | – | – | – | – | – | – | – | – | – | – | – | – | – | – | – | – | mycelial growth [3]: not affected |
